# Patent publication US20220281848A1, “PYRAZOLE-SUBSTITUTED PYRROLIDINONES AS HERBICIDES” (FMC Corporation, priority 2019, published 2022)
# Test system: plants
# Test: Test D pre-emergence, other plants of Tables D1 and D3
# Type: in vivo
# Details: for ABUTH damage to plant (100=total damage; 0=no damage) / AMARE damage to plant (100=total damage; 0=no damage) / DIGSA damage to plant (100=total damage; 0=no damage) / ECHCG damage to plant (100=total damage; 0=no damage) / ORYSA damage to plant (100=total damage; 0=no damage) / PANMI damage to plant (100=total damage; 0=no damage) / SETFA damage to plant (100=total damage; 0=no damage): preemergent
# Description: A formulation containing 50 g/L of the test chemical was prepared by dissolving the active ingredient in a mixture of organic solvents and emulsifier, details of which are provided in the table. This formulation was then mixed with a small, variable amount of acetone to aid dissolution, before addition of a 0.2% v/v aqueous solution of an adjuvant, as the aqueous diluent, to form an aqueous spray solution which contains a predetermined concentration of the active ingredient.
# This aqueous spray solution was then sprayed onto plants including maize and wheat that had been seed treated with a herbicide safener, after one day's cultivation (for pre-emergence) or after about 12 days' cultivation (for post-emergence). The plants were grown from seeds sown in standard soil, placed in a glasshouse under controlled conditions (at 24/18° C. or 20/16° C., day/night; 16 h light; 65% humidity). After spray application the plants were then grown in a glasshouse under the same conditions and watered twice daily. After 15 d for post-emergence and 20 DAA for pre-emergence the test was evaluated (100=total damage to plant; 0=no damage to plant).
# [1] = pre-emergence, rate 15, 20 DAA, 100=total damage, 0=no damage
# [2] = pre-emergence, rate 30, 20 DAA, 100=total damage, 0=no damage
# [3] = pre-emergence, rate 60, 20 DAA, 100=total damage, 0=no damage
# [4] = pre-emergence, rate 130, 20 DAA, 100=total damage, 0=no damage
# [5] = pre-emergence, rate 250, 20 DAA, 100=total damage, 0=no damage
# [6] = pre-emergence, rate 500, 20 DAA, 100=total damage, 0=no damage
smiles,measurement,setting,value
CN1CC(c2cc(C(F)(F)F)n(C)n2)C(C(=O)Nc2ccc(F)cc2C(C)(F)F)C1=O (racemic) [Compound 26],VERPE damage rating,"VERPE, Rates 500, pre-emergence, 20 DAA, 100=total damage, 0=no damage",80
same,"damage to plant, ALOMY",[1],0
same,"damage to plant, AVEFA",[1],0
same,"damage to plant, BEAVA",[1],0
same,"damage to plant, BROTE",[1],0
same,"damage to plant, BRSNN",[1],0
same,"damage to plant, HORVW",[1],0
same,"damage to plant, SINAR",[1],0
same,"damage to plant, ALOMY",[2],0
same,"damage to plant, AVEFA",[2],0
same,"damage to plant, BEAVA",[2],0
same,"damage to plant, BROTE",[2],0
same,"damage to plant, BRSNN",[2],0
same,"damage to plant, HORVW",[2],0
same,"damage to plant, SINAR",[2],0
same,"damage to plant, ALOMY",[3],0
same,"damage to plant, AVEFA",[3],0
same,"damage to plant, BEAVA",[3],0
same,"damage to plant, BROTE",[3],0
same,"damage to plant, BRSNN",[3],0
same,"damage to plant, HORVW",[3],0
same,"damage to plant, SINAR",[3],0
same,"damage to plant, ALOMY",[4],10
same,"damage to plant, AVEFA",[4],10
same,"damage to plant, BEAVA",[4],0
same,"damage to plant, BROTE",[4],0
same,"damage to plant, BRSNN",[4],0
same,"damage to plant, HORVW",[4],10
same,"damage to plant, SINAR",[4],0
same,"damage to plant, ALOMY",[5],70
same,"damage to plant, AVEFA",[5],50
same,"damage to plant, BEAVA",[5],0
same,"damage to plant, BRSNN",[5],0
same,"damage to plant, HORVW",[5],40
same,"damage to plant, SINAR",[5],0
same,"damage to plant, ALOMY",[6],70
same,"damage to plant, AVEFA",[6],90
same,"damage to plant, BEAVA",[6],0
same,"damage to plant, BROTE",[6],10
same,"damage to plant, BRSNN",[6],10
same,"damage to plant, HORVW",[6],30
same,"damage to plant, SINAR",[6],0
same,ABUTH damage to plant (100=total damage; 0=no damage),"Rates 15, 20 DAA",0
same,AMARE damage to plant (100=total damage; 0=no damage),"Rates 15, 20 DAA",0
same,DIGSA damage to plant (100=total damage; 0=no damage),"Rates 15, 20 DAA",20
same,ECHCG damage to plant (100=total damage; 0=no damage),"Rates 15, 20 DAA",0
same,ORYSA damage to plant (100=total damage; 0=no damage),"Rates 15, 20 DAA",0
same,PANMI damage to plant (100=total damage; 0=no damage),"Rates 15, 20 DAA",0
same,SETFA damage to plant (100=total damage; 0=no damage),"Rates 15, 20 DAA",0
same,ABUTH damage to plant (100=total damage; 0=no damage),"Rates 30, 20 DAA",0
same,AMARE damage to plant (100=total damage; 0=no damage),"Rates 30, 20 DAA",0
same,DIGSA damage to plant (100=total damage; 0=no damage),"Rates 30, 20 DAA",90
same,ECHCG damage to plant (100=total damage; 0=no damage),"Rates 30, 20 DAA",10
same,ORYSA damage to plant (100=total damage; 0=no damage),"Rates 30, 20 DAA",0
same,PANMI damage to plant (100=total damage; 0=no damage),"Rates 30, 20 DAA",0
same,SETFA damage to plant (100=total damage; 0=no damage),"Rates 30, 20 DAA",20
same,ABUTH damage to plant (100=total damage; 0=no damage),"Rates 60, 20 DAA",0
same,AMARE damage to plant (100=total damage; 0=no damage),"Rates 60, 20 DAA",0
same,DIGSA damage to plant (100=total damage; 0=no damage),"Rates 60, 20 DAA",90
same,ECHCG damage to plant (100=total damage; 0=no damage),"Rates 60, 20 DAA",30
same,ORYSA damage to plant (100=total damage; 0=no damage),"Rates 60, 20 DAA",0
same,PANMI damage to plant (100=total damage; 0=no damage),"Rates 60, 20 DAA",0
same,SETFA damage to plant (100=total damage; 0=no damage),"Rates 60, 20 DAA",70
same,ABUTH damage to plant (100=total damage; 0=no damage),"Rates 130, 20 DAA",0
same,AMARE damage to plant (100=total damage; 0=no damage),"Rates 130, 20 DAA",0
same,DIGSA damage to plant (100=total damage; 0=no damage),"Rates 130, 20 DAA",90
same,ECHCG damage to plant (100=total damage; 0=no damage),"Rates 130, 20 DAA",20
same,ORYSA damage to plant (100=total damage; 0=no damage),"Rates 130, 20 DAA",0
same,PANMI damage to plant (100=total damage; 0=no damage),"Rates 130, 20 DAA",0
same,SETFA damage to plant (100=total damage; 0=no damage),"Rates 130, 20 DAA",90
same,ABUTH damage to plant (100=total damage; 0=no damage),"Rates 250, 20 DAA",0
same,AMARE damage to plant (100=total damage; 0=no damage),"Rates 250, 20 DAA",70
same,DIGSA damage to plant (100=total damage; 0=no damage),"Rates 250, 20 DAA",90
same,ECHCG damage to plant (100=total damage; 0=no damage),"Rates 250, 20 DAA",60
same,ORYSA damage to plant (100=total damage; 0=no damage),"Rates 250, 20 DAA",0
same,PANMI damage to plant (100=total damage; 0=no damage),"Rates 250, 20 DAA",0
same,SETFA damage to plant (100=total damage; 0=no damage),"Rates 250, 20 DAA",90
same,ABUTH damage to plant (100=total damage; 0=no damage),"Rates 500, 20 DAA",0
same,AMARE damage to plant (100=total damage; 0=no damage),"Rates 500, 20 DAA",60
same,DIGSA damage to plant (100=total damage; 0=no damage),"Rates 500, 20 DAA",90
same,ECHCG damage to plant (100=total damage; 0=no damage),"Rates 500, 20 DAA",90
same,ORYSA damage to plant (100=total damage; 0=no damage),"Rates 500, 20 DAA",0
same,PANMI damage to plant (100=total damage; 0=no damage),"Rates 500, 20 DAA",0
same,SETFA damage to plant (100=total damage; 0=no damage),"Rates 500, 20 DAA",90
